Experimental data from patent US7943775B2, “Small molecules for imaging protein-protein interactions” (The United States of America as represented by the …, priority 2006, dated 2011).
pEC50: −log10 of the molar value.

Tests used:
Biotin-labeled amyloid-β [1] = biological target: T1, Biotin-labeled amyloid-β (Homo sapiens, UniProt P05067); experiment: ELISA assay, binding of biotin-labeled amyloid-β to plate-coated test compounds; conditions: compound coated at 1 μM
Protocol: Step 1. Sample Solution Preparations. For each test compound, four samples and two standard solutions using Thioflavin-T as the standard were prepared in a coating buffer, each to a final concentration of 1 μM. The coating buffer was 50 mM Tris (Trizma Base from Sigma Aldrich, Inc., St. […] Step 2. Coating the Plate. The sample solutions were applied to individual wells of a 96-well polystyrene microtiter plate at 100 μL/well. The plates were sealed and allowed to incubate at 4° C. for at least 8 hours. Step 3. Washing the Plate. The sample solutions were removed and the plate was washed two times with 300 μL/well of washing solution, which consisted of a 1 to 25 dilution in water of DELFIA® Wash Concentrate (PerkinElmer Life Sciences, Inc., Boston, Mass., USA). Step 4. Blocking. Blocking was achieved by adding 150 μL/well of a blocking buffer which consisted of a 1 to 20 dilution in water of Milk Diluent/Blocking Solution Concentrate (from KPL, Inc., Gaithersburg, Md., USA). The plate was then incubated at room temperature for 2 hours. Step 5. Sampling. Biotin-labeled amyloid-β was dissolved in a binding buffer to form a 1 μM solution of the amyloid-β. The binding buffer was a mixture of a coating buffer with the blocking buffer of Step 4 in a 90:10 ratio by volume. […] The dilutions were performed in quadruplicate, thus resulting in four sets of wells for each test compound. Step 6. Mixing. The solution in each well was mixed by being drawn into and ejected from a pipette 15 times. The plate was then gently agitated for further mixing. The plate was then covered and incubated at room temperature overnight. Step 7. Washing. The solution in each well was discarded and the plate was washed three times with 170 μL/well of the washing solution described above. Step 8. Binding with avidin-HRP. NeutrAvidinHRP solution was added to each well at 0.01 μg/well. The wells were then covered and incubated at room temperature for 30 minutes. Step 9. Substrate addition. The solution in each well was discarded and the plate was washed 3 times with the above-referenced washing solution at 170 μL/well of washing solution. A chemiluminescent substrate solution which was a mixture of equal volumes of LumiGLO Substrate A and LumiGLO Substrate B from KPL, Inc., was then added at 100 μL/well. Step 10. Fluorescence measurement and calculations. Luminescence was read on a Wallac Victor 1420 Multilabel Reader (PerkinElmer Life Sciences, Inc., Boston, Mass., USA). […] Average luminescence concentrations in counts per second (CPS) for each of the four β-amyloid-binding portion candidates at each dilution of the biotin-labeled β-amyloid are shown in Table I below.

Biotin-labeled amyloid-β [2] = biological target: T1, Biotin-labeled amyloid-β; experiment: Dose response assay, plate-coated test compounds at 6 concentrations vs biotin-labeled amyloid β; format: binding; conditions: biotin-labeled amyloid at 1 μM; compounds coated at 6 concentrations
Protocol: Step 1. Coating the plate. The four compounds 3a, 3b, 3c, and 3d were diluted to 6 different concentrations in the same coating buffer used in the ELISA. The resulting solutions were applied to individual wells of a 96-well polystyrene microtiter plate at 100 μL/well. The plate was then sealed and allowed to incubate at 4° C. for at least 8 hours.
Step 2. Washing the plate. The sample solutions were then removed and the plate was washed twice with 300 μL/well of the same washing solution used in the ELISA.
Step 3. Blocking. The blocking buffer used in the ELISA was added at a volume of 150 μL/well, and the plate was incubated at room temperature for 2 hours.
Step 4. Sampling. The blocking buffer was removed and biotin-labeled amyloid P was added to each well at a concentration of 1 μM in the same binding buffer used in the ELISA. The solution in each well was then mixed by being drawn into and ejected from a pipette 15 times. The plate was then gently agitated for further mixing. After mixing, the plate was covered and incubated at room temperature overnight.
Step 5. Washing. The solution in each well was discarded and the plate was washed three times with 170 μL/well of the washing solution described above.
Step 6. Binding with avidin-HRP and substrate. NeutrAvidinHRP solution was added to each well at 0.01 μg/well. The wells were then covered and incubated at room temperature for 30 minutes. The solution in each well was discarded and the plate was washed 3 times with the above-referenced washing solution at 170 μL/well of washing solution. The chemiluminescent substrate solution of the ELISA was then added at 100 μL/well, and luminescence was read using the Wallac Victor 1420 Multilabel Counter.
Step 7. Reading and calculations. Values for average luminescence vs. concentration were developed in the same manner as in the ELISA. From these values were determined EC50 values for each of the four test compounds as β-amyloid-binding portion candidates.

T1 sequence (P05067 672-711 limits assumed): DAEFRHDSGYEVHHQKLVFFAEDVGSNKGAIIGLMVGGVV

Structure (SMILES): NCCCCCNC(=O)c1ccccc1Nc1cccc(C(F)(F)F)c1 [3d]
- Average Luminescence Concentration (CPS) (Biotin-labeled amyloid-β [1]; β-Amyloid Dilution 1 (μL/well)): 105 CPS
- Average Luminescence Concentration (CPS) (Biotin-labeled amyloid-β [1]; β-Amyloid Dilution 5 (μL/well)): 220 CPS
- Average Luminescence Concentration (CPS) (Biotin-labeled amyloid-β [1]; β-Amyloid Dilution 10 (μL/well)): 678 CPS
- Average Luminescence Concentration (CPS) (Biotin-labeled amyloid-β [1]; β-Amyloid Dilution 20 (μL/well)): 1461 CPS
- Average Luminescence Concentration (CPS) (Biotin-labeled amyloid-β [1]; β-Amyloid Dilution 30 (μL/well)): 2662 CPS
- Average Luminescence Concentration (CPS) (Biotin-labeled amyloid-β [1]; β-Amyloid Dilution 40 (μL/well)): 2579 CPS
- pEC50 (Biotin-labeled amyloid-β [2]): 4.45
